Test system: not given
Experiment: not given
Conditions: not given

| melting point | SMILES |
| --- | --- |
| 205 to 208 °C | ON=C1Nc2ccc(-c3ccc(F)cc3)cc2C12CCCCC2 [Example 47, 5′-(4-Fluorophenyl)spiro[cyclohexane-1,3′-[3H]indol]-2′(1′H)-one Oxime] |
| 101 to 104 °C | COc1cccc(-c2ccc3c(c2)C2(CCCCC2)C(=NO)N3)c1 [Example 49, 5′-(3-Methoxyphenyl)spiro[cyclohexane-1,3′-[3H]indol]-2′(1′H)-one Oxime] |
| 198 to 200 °C | N#Cc1cccc(-c2ccc3c(c2)C2(CCCCC2)C(=NO)N3)c1 [Example 51, 5′-(3-Cyanophenyl)spiro[cyclohexane-1,3′-[3H]indol]-2′(1′H)-one Oxime] |

Second part, the compound before the results:

| SMILES | melting point |
| --- | --- |
| N#Cc1cccc(-c2ccc3c(c2)C2(CCCCC2)C(=S)N3)c1 [Example 2, 3-(1′,2′-Dihydro-2′-thioxospiro[cyclohexane-1,3′-[3H]indol]-5′-yl)benzonitrile] | > 231 °C (dec.) |
| CC1(C)C(=S)Nc2ccc(-c3coc(C#N)c3)cc21 [Example 18, 4-(3,3-Dimethyl-2-thioxo-2,3-dihydro-1H-indol-5-yl)-2-furonitrile] | 188 to 191 °C |

Test system: rat uterine decidualization
Experiment: Rat decidualization assay
Conditions: s.c.; average of the dose-response curves

| Estimated average EC50 (decidual response) [mg/kg] | SMILES |
| --- | --- |
| 0.10 | C#C[C@]1(O)CC[C@H]2[C@@H]3CCC4=CC(=O)CC[C@@H]4[C@H]3C(=C)C[C@@]21CC [3-Ketodesogestrel] |

From patent US6583145B1, “Thio-oxindole derivatives” (Wyeth, priority 1999, dated 2003)
